Reference: publication PMC10372924, “The Jasmine (Jasminum sambac) Genome Provides Insight into the Biosynthesis of Flower Fragrances and Jasmonates” (Genomics, Proteomics & Bioinformatics, 2022)

Molecular target: T1, JsTPS3 (GST-JsTPS3) (Jasminum sambac, UniProt A0A8T9EC85)
T1 construct: gene TPS3; full-length CDS in pGEX-6p-1, N-terminal GST tag kept, E. coli Rosetta (DE3), ~98 kDa with tag
T1 sequence (A0A8T9EC85 1-540): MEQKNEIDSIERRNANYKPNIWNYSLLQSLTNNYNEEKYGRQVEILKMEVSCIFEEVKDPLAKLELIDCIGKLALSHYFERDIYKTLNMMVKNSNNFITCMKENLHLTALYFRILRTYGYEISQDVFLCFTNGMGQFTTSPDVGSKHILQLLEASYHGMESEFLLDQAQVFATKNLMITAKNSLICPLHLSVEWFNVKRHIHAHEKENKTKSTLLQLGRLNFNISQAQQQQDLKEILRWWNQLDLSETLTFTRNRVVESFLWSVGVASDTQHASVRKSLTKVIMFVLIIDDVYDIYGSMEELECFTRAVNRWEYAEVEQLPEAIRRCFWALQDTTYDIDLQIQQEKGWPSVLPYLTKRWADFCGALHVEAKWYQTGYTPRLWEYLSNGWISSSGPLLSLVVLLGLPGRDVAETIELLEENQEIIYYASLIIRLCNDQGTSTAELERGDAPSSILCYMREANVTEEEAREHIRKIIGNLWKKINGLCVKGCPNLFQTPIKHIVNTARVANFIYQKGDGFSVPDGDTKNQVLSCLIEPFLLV
Experiment: GC-Orbitrap MS detection of trans-beta-ocimene and beta-ocimene formed
Type: biochemical
Conditions: 60 uM GPP; 30 mM HEPES pH 7.5, 5 mM DTT, 25 mM MgCl2; 30 °C 1 h, then 45 °C 15 min; 10 or 15 ug enzyme in 1 ml

Compound: CC(C)=CCC/C(C)=C/COP(=O)(O)OP(=O)(O)O [GPP, geranyl pyrophosphate]
- GC-Orbitrap MS detection of trans-beta-ocimene and beta-ocimene formed: recombinant JsTPS3 protein exerts TPS activity by catalyzing GPP into trans-β-ocimene and β-ocimene
